In patent US4143032A, “Hexapeptides having analgesic activities” (American Home Products Corporation, priority 1977, dated 1979):
Non-standard residues stand in square brackets, D forms with d. Residues, ends and D or L forms follow the SMILES beside them.

Columns and labels:
[1] = tested on: rats; experiment: rat-tail flick method of D'Amour and Smith (analgesic activity); format: in vivo; conditions: single dose
Experimental: In this procedure, a single intravenous dose of from 0.5 to 20 mg/kg., will produce analgesia in the rat. Preferably, a dose of from 1 to 10 mg/kg. is employed. The exact dose to be employed will vary depending on the particular compound employed and the degree of analgesia desired. The determination of the precise dose to produce the desired effect will be readily ascertained by those skilled in the art. With representative compound H-Arg-Tyr-D-Ala-Gly-Phe-D-Leu-NH2, the following results were obtained: […]

[2] = tested on: rats; conditions: injection in the brain ventricle in rats; fully reversible by naloxone; cited from earlier work
[3] = tested on: opiate receptor; conditions: brain homogenates; cited from earlier work
[4] = tested on: guinea pig ileum; conditions: cited from earlier work
[5] = tested on: mouse vas deferens; conditions: cited from earlier work
[6] = peripheral administration, for example intravenous; cited from earlier work
[7] = administered intracerebroventricularly; cited from earlier work

Row | Molecule | No. Showing Analgesic/No. Tested ([1]; 1.0 mg/kg. i.v.) | No. Showing Analgesic/No. Tested ([1]; 2.5 mg/kg. i.v.) | No. Showing Analgesic/No. Tested ([1]; 5 mg/kg. i.v.) | analgesia [2] | inhibition of stereospecific receptor binding of 3H-naloxone [3] | ability to block electrically evoked contractions [4] | ability to block electrically evoked contractions [5] | peripheral activity [6] | activity [7]
1 | CC(=O)O.CC(=O)O.CC(C)C[C@@H](NC(=O)[C@H](Cc1ccccc1)NC(=O)CNC(=O)[C@@H](C)NC(=O)[C@H](Cc1ccc(O)cc1)NC(=O)[C@@H](N)CCCNC(=N)N)C(N)=O [H-Arg-Tyr-D-Ala-Gly-Phe-D-Leu-NH2, L-Arginyl-L-Tyrosyl-D-Alanyl-Glycyl-L-Phenylalanyl-D-Leucyl Amide Diacetate] (H-RY[dA]GF[dL]-NH2) | 2/6 | 2/6 | 6/6 |  |  |  |  |  | 
2 | H-Tyr-Gly-Gly-Phe-Met-OH [methionine-enkephalin] |  |  |  | induce a profound analgesia | inhibit the stereospecific receptor binding | block electrically evoked contractions | block electrically evoked contractions | inactive peripherally | 
3 | Tyr-D-Ala-Gly-Phe-D-Leu |  |  |  |  |  |  |  |  | activity
4 | H-Tyr-Gly-Gly-Phe-Leu-OH [leucine-enkephalin] |  |  |  | induce a profound analgesia | inhibit the stereospecific receptor binding | block electrically evoked contractions | block electrically evoked contractions | inactive peripherally | 
